Values after ≈ are worked out from the molar mass of the structure shown.
Assays:
[1] = Solubility and stability properties of the active materials
[2] = Solubility at ˜22-24° C. versus pH; type: physicochemical
Description: However, carbidopa and LDEE, examples of two active materials in the composition of the present invention, have different chemical and physical properties and contrasting solubility characteristics especially in acid conditions, i.e., in the gastrointestinal tract (see Table 1).

| solubility in water [1] | Solubility ([2]; pH 1.0) [mg/mL] | Solubility ([2]; pH 5.0) [mg/mL] | stability at room temperature ([1]; kept under refrigeration (2-8° C.)) | Compound | sensitivity to moisture / hydrolysis [1] |
| --- | --- | --- | --- | --- | --- |
| slightly soluble |  |  |  | C[C@@](Cc1ccc(O)c(O)c1)(NN)C(=O)O [Carbidopa, carbidopa, reference compound] |  |
|  | 2200 (≈ 9770 mM) | 1700 (≈ 7550 mM) | not stable at room temperature | CCOC(=O)[C@@H](N)Cc1ccc(O)c(O)c1 [LDEE, levodopa ethyl ester] | highly sensitive to moisture, undergoes hydrolysis easily |
